Data on 41 molecules can be found in US12441679B2, “Acrylamide-substituted indane compounds and therapeutic use thereof” (Sanofi, priority 2020, dated 2025).

In this assay the test system is YAP1-TEAD and TAZ-TEAD activity (TEAD responsive promoter element). Put plainly: TEAD-Luciferase Reporter Assay (8XGTIIC-Luciferase construct stably integrated in tumor cell lines). Format: cell-based, human. The conditions noted are these: 8XGTIIC-Luciferase reporter in tumor cell lines, 48 hrs compound treatment, 10 doses 1-10000 nM. The source says: TEAD-Luciferase Reporter Assay
Luciferase-based gene reporter assays were used, employing the TEAD responsive promoter element that are stably integrated to different human tumor cell lines in order to monitor YAP1-TEAD and TAZ-TEAD activity and to study YAP1/TAZ-TEAD activity modulation by small molecule compounds. Luciferase-based gene reporter assays employing the GAPDH promoter element and stably integrated to different human tumor cell lines are used as counter screen control cell lines.
Tumor cell lines with stable integration of the 8XGTIIC-Luciferase construct (Dupont et al., Nature 2011) or the GAPDH-Luciferase control plasmid, are seeded in culture medium in 96-well plates at a density of 8000 cells/well. Following an overnight incubation in a 37° C., 5% CO2 growth chamber, cells are treated with compounds described above at 10 doses ranging between 1 and 10000 nM for 48 hrs. After compound incubation, cells are lysed with Bright-Glo Luciferase Assay System (Promega E2620) and luciferase activity is measured using a luminescent plate reader.
The inhibitory activity of the compounds with respect to luciferase activity is given by the concentration which inhibits 50% of activity of non-treated cells. IC50s are determined with a nonlinear regression model on XLfit software analysis (IDBS, UK).

As to `C=CC(=O)Nc1ccc2c(c1)C(OCCCCF)CC2` (centres unmarked) [Example 34, N-(3-(4-fluorobutoxy)-2,3-dihydro-1H-inden-5-yl)acrylamide], the half-maximal inhibitory concentration (IC50) (Homo sapiens) came to 2.53 µM.

In turn, `C=CC(=O)Nc1ccc2c(c1)C[C@@H](Nc1cccc(F)c1)C2` (single isomer, unassigned) [Example 48] showed an IC50 (Homo sapiens) of 0.069 µM.

The molecule `C=CC(=O)Nc1ccc2c(c1)C(Nc1ccc(C(F)(F)F)cc1)C(F)C2` (centres unmarked) [Example 90, N-[2-fluoro-3-[4-(trifluoromethyl)anilino]-2,3-dihydro-1H-inden-5-yl]acrylamide] returned an IC50 (Homo sapiens) of 0.084 µM.

As to `C=CC(=O)Nc1ccc2c(c1)C(Nc1cc(F)cc(F)c1)CC2` (centres unmarked) [Example 53, N-(3-((3,5-difluorophenyl)amino)-2,3-dihydro-1H-inden-5-yl)acrylamide], half-maximal inhibition (Homo sapiens) (IC50) was put at 0.057 µM.

`C=CC(=O)Nc1ccc2c(c1)CC[C@@H]2Nc1ccc(C(F)(F)F)cc1` (single isomer, unassigned) [Example 56] had an IC50 (Homo sapiens) of 0.044 µM.

In turn, `C=CC(=O)Nc1ccc2c(c1)C(NC1CCC(F)(F)CC1)CC2` (centres unmarked) [Example 70, N-(3-((4,4-difluorocyclohexyl)amino)-2,3-dihydro-1H-inden-5-yl)acrylamide] had a 50% inhibitory concentration (IC50) (Homo sapiens) of 5.26 µM.

Take `C=CC(=O)Nc1ccc2c(c1)CCC2Nc1ccc(C(F)(F)F)cc1` (centres unmarked) [Example 10, N-(1-((4-(trifluoromethyl)phenyl)amino)-2,3-dihydro-1H-inden-5-yl)acrylamide]: inhibition (Homo sapiens) was half-maximal at 0.044 µM (IC50).

On to `C=CC(=O)Nc1ccc2c(c1)CCC2Oc1ccc(C(F)(F)F)cc1` (centres unmarked) [Example 82, N-(1-(4-(trifluoromethyl)phenoxy)-2,3-dihydro-1H-inden-5-yl)acrylamide], for which the midpoint of inhibition (Homo sapiens), the IC50, lay at 0.031 µM.

As to `C=CC(=O)Nc1ccc2c(c1)C(Oc1ccc(F)cc1)CC2` (centres unmarked) [Example 42, N-(3-(4-fluorophenoxy)-2,3-dihydro-1H-inden-5-yl)acrylamide], where the note is “Homo sapiens”, half-maximal inhibition (IC50) was put at 0.029 µM.

As to `C=CC(=O)Nc1ccc2c(c1)CCC2Nc1cccc(S(F)(F)(F)(F)F)c1` (centres unmarked) [Example 54, N-(1-((3-(pentafluoro-I6-sulfanyl)phenyl)amino)-2,3-dihydro-1H-inden-5-yl)acrylamide], it took 0.388 µM to reach half-maximal inhibition (IC50).

Under “Homo sapiens”, `C=CC(=O)Nc1ccc2c(c1)CCC2Nc1cccc(C(F)(F)F)c1` (centres unmarked) [Example 1, N-(1-((3-(trifluoromethyl)phenyl)amino)-2,3-dihydro-1H-inden-5-yl)acrylamide] returned an IC50 of 0.072 µM.

With `C=CC(=O)Nc1ccc2c(c1)CCC2Nc1ccc(F)cn1` (centres unmarked) [Example 21, N-(1-((5-fluoropyridin-2-yl)amino)-2,3-dihydro-1H-inden-5-yl)acrylamide], under “Homo sapiens”, half-maximal inhibition (IC50) was put at 0.262 µM.

Take `C=CC(=O)Nc1ccc2c(c1)C(Nc1ccc(F)c(F)c1)CC2` (centres unmarked) [Example 13, N-(3-((3,4-difluorophenyl)amino)-2,3-dihydro-1H-inden-5-yl)acrylamide]: half-maximal inhibition (Homo sapiens) (IC50) was put at 0.037 µM.

As to `C=CC(=O)Nc1ccc2c(c1)CC(N[C@H]1CC[C@H](C(F)(F)F)CC1)C2` (relative stereo) [Example 27, N-(2-(((trans)-4-(trifluoromethyl)cyclohexyl)amino)-2,3-dihydro-1H-inden-5-yl)acrylamide], the IC50 (Homo sapiens) was above 10 µM.

`C=CC(=O)Nc1ccc2c(c1F)CCC2Nc1ccc(C(F)(F)F)cc1` (centres unmarked) [Example 68, N-[4-fluoro-1-[4-(trifluoromethyl)anilino]-2,3-dihydro-1H-inden-5-yl]acrylamide]: the IC50 (Homo sapiens) amounted to 0.29 µM.

`C=CC(=O)Nc1ccc2c(c1)[C@H](Oc1ccc(C(F)(F)F)cc1)CC2` (single isomer, unassigned) [Example 87] displayed a half-maximal inhibitory concentration (IC50) (Homo sapiens) of 0.028 µM.

Consider `C=CC(=O)Nc1ccc2c(c1)C(Oc1cccc(C)c1)CC2` (centres unmarked) [Example 79, N-(3-(m-tolyloxy)-2,3-dihydro-1H-inden-5-yl)acrylamide], for which the IC50 (Homo sapiens) was determined as 8.67 µM.

Molecule `C=CC(=O)Nc1ccc2c(c1)C(OCCCC(F)F)CC2` (centres unmarked) [Example 73, N-(3-(4,4-difluorobutoxy)-2,3-dihydro-1H-inden-5-yl)acrylamide] displayed an IC50 (Homo sapiens) of 1.31 µM.

Where the note is “Homo sapiens”, `C=CC(=O)Nc1ccc2c(c1)C(Oc1ccc(F)cc1F)CC2` (centres unmarked) [Example 44, N-(3-(2,4-difluorophenoxy)-2,3-dihydro-1H-inden-5-yl)acrylamide] registered an IC50 of 0.038 µM.

For the molecule `C=CC(=O)Nc1ccc2c(c1)C(OC1CCC(C(F)(F)F)C1)CC2` (centres unmarked) [Example 71, N-(3-((3-(trifluoromethyl)cyclopentyl)oxy)-2,3-dihydro-1H-inden-5-yl)acrylamide], the IC50 (Homo sapiens) turned out to be 0.82 µM.

Molecule `C=CC(=O)Nc1ccc2c(c1)C(Oc1ccc(F)c(F)c1)CC2` (centres unmarked) [Example 40, N-(3-(3,4-difluorophenoxy)-2,3-dihydro-1H-inden-5-yl)acrylamide] registered an IC50 (Homo sapiens) of 0.015 µM.

Under “Homo sapiens”, `C=CC(=O)Nc1ccc2c(c1)C(Nc1cccc(F)c1)CC2` (centres unmarked) [Example 14, N-(3-((3-fluorophenyl)amino)-2,3-dihydro-1H-inden-5-yl)acrylamide] came in with an IC50 of 0.054 µM.

`C=CC(=O)Nc1ccc2c(c1)CCC2Nc1cccc(F)c1` (centres unmarked) [Example 8, N-(1-((3-fluorophenyl)amino)-2,3-dihydro-1H-inden-5-yl)acrylamide] yielded a concentration for half-maximal inhibition (IC50) (Homo sapiens) of 0.132 µM.

With `C=CC(=O)N(C)c1ccc2c(c1)CCC2Nc1ccc(C(F)(F)F)cc1` (centres unmarked) [Example 69, N-methyl-N-(1-((4-(trifluoromethyl)phenyl)amino)-2,3-dihydro-1H-inden-5-yl)acrylamide], under “Homo sapiens”, half-maximal inhibition (IC50) was put at 0.349 µM.

Regarding `C=CC(=O)Nc1ccc2c(c1)CC(Nc1cccc(F)c1)C2` (centres unmarked) [Example 31, N-(2-((3-fluorophenyl)amino)-2,3-dihydro-1H-inden-5-yl)acrylamide], the IC50 (Homo sapiens) amounted to 0.02 µM.

For `C=CC(=O)Nc1ccc2c(c1)CCC2Nc1cncc(C(F)(F)F)c1` (centres unmarked) [Example 61, N-(1-((5-(trifluoromethyl)pyridin-3-yl)amino)-2,3-dihydro-1H-inden-5-yl)acrylamide], for the setting “Homo sapiens”, the IC50 turned out to be 0.178 µM.

In turn, `C=CC(=O)Nc1ccc2c(c1)CC[C@@H]2Oc1cccc(C(F)(F)F)c1` (single isomer, unassigned) [Example 84] registered an IC50 (Homo sapiens) of 0.153 µM.

For the molecule `C=CC(=O)Nc1ccc2c(c1)C(OCCCCC(F)(F)F)CC2` (centres unmarked) [Example 72, N-(3-((5,5,5-trifluoropentyl)oxy)-2,3-dihydro-1H-inden-5-yl)acrylamide], where the note is “Homo sapiens”, the IC50 came to 0.861 µM.

In turn, `C=CC(=O)Nc1ccc2c(c1)CC[C@H]2Nc1ccc(F)cc1` [Example 7, (R)—N-(1-((4-fluorophenyl)amino)-2,3-dihydro-1H-inden-5-yl)acrylamide] came in with an IC50 (Homo sapiens) of 0.028 µM.

The molecule `C=CC(=O)Nc1ccc2c(c1)CC(NC1CCC(F)(F)CC1)C2` (centres unmarked) [Example 28, N-(2-((4,4-difluorocyclohexyl)amino)-2,3-dihydro-1H-inden-5-yl)acrylamide] gave a 50% inhibitory concentration (IC50) (Homo sapiens) of 4.02 µM.

Under “Homo sapiens”, `C=CC(=O)Nc1ccc2c(c1)C(C)(C)CC2Nc1ccc(C(F)(F)F)cc1` (centres unmarked) [Example 66, N-(3,3-dimethyl-1-((4-(trifluoromethyl)phenyl)amino)-2,3-dihydro-1H-inden-5-yl)acrylamide] yielded an IC50 of 0.863 µM.

For the molecule `C=CC(=O)Nc1ccc2c(c1)C(Oc1ccccc1)CC2` (centres unmarked) [Example 38, N-(3-phenoxy-2,3-dihydro-1H-inden-5-yl)acrylamide], under “Homo sapiens”, the half-inhibitory concentration (IC50) came out at 0.074 µM.

In the case of `C=CC(=O)Nc1ccc2c(c1)CCC2Nc1cccc(C)c1` (centres unmarked) [Example 18, N-(1-(m-tolylamino)-2,3-dihydro-1H-inden-5-yl)acrylamide], the midpoint of inhibition (Homo sapiens), the IC50, lay at 0.213 µM.

In the case of `C=CC(=O)Nc1ccc2c(c1)CCC2Nc1cc(C(F)(F)F)ccn1` (centres unmarked) [Example 59, N-(1-((4-(trifluoromethyl)pyridin-2-yl)amino)-2,3-dihydro-1H-inden-5-yl)acrylamide 2,2,2-trifluoroacetate], the IC50 (Homo sapiens) worked out at 0.06 µM.

In turn, “(S)—N-(1-((3-(trifluoromethyl)phenyl)amino)-2,3-dihydro-1H-inden-5-yl)acrylamide [Example 3]” yielded an IC50 of 0.109 µM.

With `C=CC(=O)Nc1ccc2c(c1)C(Oc1ccc(C(F)(F)F)cc1)CC2` (centres unmarked) [Example 37, N-(3-(4-(trifluoromethyl)phenoxy)-2,3-dihydro-1H-inden-5-yl)acrylamide], the midpoint of inhibition (Homo sapiens), the IC50, lay at 0.024 µM.

The molecule `C=CC(=O)Nc1ccc2c(c1)[C@@H](Nc1cccc(C(F)(F)F)c1)[C@H](O)C2` (racemic) [Example 96, N-[rac-(2R,3R)-2-hydroxy-3-[3-(trifluoromethyl)anilino]-2,3-dihydro-1H-inden-5-yl]acrylamide] gave an IC50 (Homo sapiens) of 1.98 µM.

For `C=CC(=O)Nc1ccc2c(c1)CCC2N(C)c1cccc(C(F)(F)F)c1` (centres unmarked) [Example 62, N-(1-(methyl(3-(trifluoromethyl)phenyl)amino)-2,3-dihydro-1H-inden-5-yl)acrylamide], for the setting “Homo sapiens”, 0.07 µM corresponded to half-maximal inhibition (IC50).

In the case of `C=CC(=O)Nc1ccc2c(c1)CCC2Nc1cccc(OC)c1` (centres unmarked) [Example 17, N-(1-((3-methoxyphenyl)amino)-2,3-dihydro-1H-inden-5-yl)acrylamide], for the setting “Homo sapiens”, the IC50 is above 10 µM.

Where the note is “Homo sapiens”, `C=CC(=O)Nc1ccc2c(c1)CCC2Nc1cccc(C(F)(F)F)n1` (centres unmarked) [Example 60, N-(1-((6-(trifluoromethyl)pyridin-2-yl)amino)-2,3-dihydro-1H-inden-5-yl)acrylamide] displayed an IC50 of 0.346 µM.

Turning to `C=CC(=O)Nc1ccc2c(c1)CCC2N(C)c1ccccc1` (centres unmarked) [Example 63, N-(1-(methyl(phenyl)amino)-2,3-dihydro-1H-inden-5-yl)acrylamide], under “Homo sapiens”, the IC50 is 0.144 µM.
